Experimental findings from patent US7528170B2, “Sulfonamide derivatives for the treatment of diseases” (Pfizer Inc., priority 2004, dated 2009) are described below.

What is called EC50 is the concentration giving half of the maximal effect.

T1 sequence (P07550 whole entry): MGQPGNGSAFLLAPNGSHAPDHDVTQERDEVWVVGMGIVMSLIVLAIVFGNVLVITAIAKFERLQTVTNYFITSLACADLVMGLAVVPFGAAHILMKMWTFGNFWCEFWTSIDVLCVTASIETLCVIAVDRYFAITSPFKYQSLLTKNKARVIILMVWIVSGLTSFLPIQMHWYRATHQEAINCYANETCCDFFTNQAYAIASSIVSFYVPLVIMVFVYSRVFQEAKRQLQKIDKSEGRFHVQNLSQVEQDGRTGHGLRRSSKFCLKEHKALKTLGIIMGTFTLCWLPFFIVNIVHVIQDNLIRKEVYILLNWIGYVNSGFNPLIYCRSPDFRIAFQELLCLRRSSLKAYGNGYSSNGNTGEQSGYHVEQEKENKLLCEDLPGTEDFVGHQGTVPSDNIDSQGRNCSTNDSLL

This assay addresses T1, human β2 adrenergic receptor (Homo sapiens, UniProt P07550).
T1 construct: expressed in transfected cells; host or cells: CHO (Chinese Hamster Ovary) cells, CHOhβ2
The experiment in a line: β2 cAMP agonist potency assay in CHOhβ2 cells (cAMP-Flashplate). It is filed as cell-based. As to conditions: CHO cells recombinantly expressing the human β2 adrenergic receptor; compounds incubated with cells for 1 hour; data as % Isoprenaline activity, four parameter sigmoid fit. The method, then: According to another alternative, the agonist potency for the β2 receptor of the compounds of the formula (1) may also be determined by the measure of the concentration of compound according to the present invention required to produce half maximal effect (EC50) for the β2 receptor.
10 mM/100% DMSO (dimethylsulfoxide) stock of compound is diluted to required top dose in 4% DMSO. This top dose is used to construct a 10-point semi-log dilution curve, all in 4% DMSO. Isoprenaline (Sigma, 1-5627) was used as a standard in every experiment and for control wells on each plate. Data was expressed as % Isoprenaline response.
CHO (Chinese Hamster Ovary) cells recombinantly expressing the human β2 adrenergic receptor (from Kobilka et al., PNAS 84: 46-50, 1987 and Bouvier et al., Mol Pharmacol 33: 133-139 1988 CHOhβ2) were grown in Dulbeccos MEM/NUT MIX F12 (Gibco, 21331-020) supplemented with 10% foetal bovine serum (Sigma, F4135, Lot 90K8404 Exp 09/04), 2 mM glutamine (Sigma, G7513), 500 μg/ml geneticin (Sigma, G7034) and 10 μg/ml puromycin (Sigma, P8833). Cells were seeded to give about 90% confluency for testing.
25 μl/well each dose of compound was transferred into a cAMP-Flashplate® (NEN, SMP004B), with 1% DMSO as basal controls and 100 nM Isoprenaline as max controls. This was diluted 1:2 by the addition of 25 μl/well PBS. Cells were trypsinised (0.25% Sigma, T4049), washed with PBS (Gibco, 14040-174) and resuspended in stimulation buffer (NEN, SMP004B) to give 1×10^6 cells/ml CHOhB2. Compounds were incubated with 50 μl/well cells for 1 hour. Cells were then lysed by the addition of 100 μl/well detection buffer (NEN, SMP004B) containing 0.18 μCi/ml ^125I-cAMP (NEN, NEX-130) and plates were incubated at room temperature for a further 2 hours. The amount of ^125I-cAMP bound to the Flashplate® was quantified using a Topcount NXT (Packard), normal counting efficiency for 1 minute. Dose-response data was expressed as % Isoprenaline activity and fitted using a four parameter sigmoid fit. […] The following table illustrate the activity of the compounds of the invention: […]
As to `COc1cc(CNC(=O)Cc2cccc(CC(C)(C)NC[C@H](O)c3ccc(O)c(NS(C)(=O)=O)c3)c2)ccc1O` [Example 1, 2-(3-{2-[((2R)-2-Hydroxy-2-{4-hydroxy-3-[(methylsulfonyl)amino]phenyl}ethyl)amino]-2-methylpropyl}phenyl)-N-(4-hydroxy-3-methoxybenzyl)acetamide], the EC50 is 0.03 nM.
The same measure for `CC(C)(Cc1cccc(CC(=O)NCc2ccc(-c3ccc(O)cc3)cc2)c1)NC[C@H](O)c1ccc(O)c(NS(C)(=O)=O)c1` [Example 2, N-[(4′-Hydroxybiphenyl-4-yl)methyl]-2-(3-{2-[((2R)-2-hydroxy-2-{4-hydroxy-3-[(methylsulfonyl)amino]phenyl}ethyl)amino]-2-methylpropyl}phenyl)acetamide]: 0.24 nM; for `CC(C)(Cc1cccc(CC(=O)NCc2ccc3cc(O)ccc3c2)c1)NC[C@H](O)c1ccc(O)c(NS(C)(=O)=O)c1` [Example 6]: 0.16 nM.
As for `CC(C)(Cc1cccc(CC(=O)NCc2cccc(-c3ccc(O)cc3)c2)c1)NC[C@H](O)c1ccc(O)c(NS(C)(=O)=O)c1` [Example 7, N-[(4′-Hydroxybiphenyl-3-yl)methyl]-2-(3-{2-[((2R)-2-hydroxy-2-{4-hydroxy-3-[(methylsulfonyl)amino]phenyl}ethyl)amino]-2-methylpropyl}phenyl)acetamide], the figure is 0.26 nM; as for `CC(C)(Cc1cccc(CC(=O)NCC(C)(C)c2ccc(O)cc2)c1)NC[C@H](O)c1ccc(O)c(NS(C)(=O)=O)c1` [Example 9, 2-(3-{2-[((2R)-2-Hydroxy-2-(4-hydroxy-3-[(methylsulfonyl)amino]phenyl)ethyl)amino]-2-methylpropyl}phenyl)-N-[2-(4-hydroxyphenyl)-2-methylpropyl]acetamide], 0.45 nM.
As for `CC(C)(Cc1cccc(CC(=O)N2CCc3cc(O)ccc3C2)c1)NC[C@H](O)c1ccc(O)c(NS(C)(=O)=O)c1` [Example 13, N-(2-Hydroxy-5-{(1R)-1-hydroxy-2-[(2-{3-[2-(6-hydroxy-3,4-dihydroisoquinolin-2(1H)-yl)-2-oxoethyl]phenyl}-1,1-dimethylethyl)amino]ethyl}phenyl)methanesulfonamide], the figure is 0.08 nM; as for `CC(C)(Cc1cccc(CC(=O)NCCc2ccc(O)cc2)c1)NC[C@H](O)c1ccc(O)c(NS(C)(=O)=O)c1` [Example 15, 2-(3-{2-[((2R)-2-Hydroxy-2-{4-hydroxy-3-[(methylsulfonyl)amino]phenyl}ethyl)amino]-2-methylpropyl}phenyl)-N-[2-(4-hydroxyphenyl)ethyl]acetamide], 0.09 nM; as for `CC(C)(Cc1cccc(CC(=O)NCc2cc(O)cc(C(F)(F)F)c2)c1)NC[C@H](O)c1ccc(O)c(NS(C)(=O)=O)c1` [Example 20, 2-(3-{2-[((2R)-2-Hydroxy-2-{4-hydroxy-3-[(methylsulfonyl)amino]phenyl}ethyl)amino]-2-methylpropyl}phenyl)-N-[3-hydroxy-5-(trifluoromethyl)benzyl]acetamide], 0.29 nM.
